# Measured values reported in publication PMC3171734 (2011).
# T1: dimethylarginine dimethylaminohydrolase (P. aeruginosa DDAH) (Pseudomonas aeruginosa, UniProt Q9I4E3)
# T1 sequence (Q9I4E3 1-254): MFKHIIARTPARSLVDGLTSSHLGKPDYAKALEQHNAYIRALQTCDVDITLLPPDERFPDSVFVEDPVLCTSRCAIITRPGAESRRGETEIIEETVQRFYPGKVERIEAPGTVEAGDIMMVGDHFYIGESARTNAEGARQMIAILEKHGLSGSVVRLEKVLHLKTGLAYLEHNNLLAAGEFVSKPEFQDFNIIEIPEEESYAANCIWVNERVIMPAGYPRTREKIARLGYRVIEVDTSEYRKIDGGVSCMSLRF
# B1: dimethylarginine dimethylaminohydrolase (P. aeruginosa DDAH) (Pseudomonas aeruginosa PAO1) (protein)
# chain: T1 sequence (Q9I4E3 1-254)
# Experiments:
# [1] = molecular target: T1, dimethylarginine dimethylaminohydrolase (P. aeruginosa DDAH); assay: dose-dependent inhibition of isolated enzyme; assay type: biochemical
# human DDAH-1 = human DDAH-1 (Homo sapiens, UniProt O94760); assay: dose-dependent inhibition of isolated enzyme; assay type: biochemical
# [2] = substrate: CSC(=N)NCCC[C@H](N)C(=O)O; assay: steady-state kinetics, DTNB-coupled 384-well assay; assay type: biochemical, Pseudomonas aeruginosa
# Sequence of human DDAH-1 (O94760 2-285): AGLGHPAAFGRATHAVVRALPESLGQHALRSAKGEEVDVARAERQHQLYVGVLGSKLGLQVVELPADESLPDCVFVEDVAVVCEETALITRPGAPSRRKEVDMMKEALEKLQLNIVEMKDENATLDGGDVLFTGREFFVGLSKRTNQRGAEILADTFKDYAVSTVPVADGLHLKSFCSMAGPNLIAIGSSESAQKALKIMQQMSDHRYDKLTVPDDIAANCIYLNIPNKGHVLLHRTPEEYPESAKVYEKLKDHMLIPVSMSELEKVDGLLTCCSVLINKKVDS
Molecule,IC50 [1],IC50 (human DDAH-1),Km [2]
O=c1c2ccccc2[se]n1-c1ccccc1 [ebselen],96 ± 2 nM,330 ± 30 nM,–
B1,–,–,22 ± 1 µM
